From patent publication US20240174618A1, “SUBSTITUTED (2-HETEROARYLOXYPHENYL)SULFONATES, SALTS THEREOF AND THEIR USE AS HERBICIDAL AGENTS” (Bayer Aktiengesellschaft, priority 2021, published 2024)

Tests used:
Format in all cases: in vivo
[1] = test system: Polygonum convolvulus (POLCO); test: C. Herbicidal pre-emergence efficacy, POLCO; conditions: scored after about 3 weeks
Excerpt: Seeds of monocotyledonous and dicotyledonous weed plants and crop plants were placed in plastic or organic planting pots and covered with soil. The compounds of the invention, formulated in the form of wettable powders (WP) or as emulsion concentrates (EC), were then applied to the surface of the covering soil as aqueous suspension or emulsion with addition of 0.5% additive at a water application rate equivalent to 600 l/ha (converted). After the treatment, the pots were placed in a greenhouse and kept under good growth conditions for the test plants. After about 3 weeks, the efficacy of the preparations was scored visually in comparison with untreated controls as percentages. For example, • 100% efficacy=plants have died, • 0% efficacy=like untreated control plants.
Tables C1a to C14b below show the effects of selected compounds of the general formula (I) according to table 1 on various harmful plants at an application rate corresponding to 320 g/ha or less, which were obtained by the experimental procedure mentioned above.

Viola tricolor (VIOTR) = test: E. Herbicidal post-emergence efficacy, VIOTR
Method in brief: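 Visual scoring against untreated plants was done roughly 3 weeks after spraying (0% = no effect, 100% = plants dead). Spray application at 320 g/ha or lower, 600 l/ha water with 0.5% additive, was made onto green parts of one-leaf-stage greenhouse plants grown 2-3 weeks in sandy loam.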

[2] = test system: Echinochloa crus-galli (ECHCG); test: A. Herbicidal pre-emergence efficacy, ECHCG; conditions: scored visually after about 3 weeks vs untreated controls
Method in brief: (§1)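 Applied before emergence onto covering soil at rates of 1280 g/ha or less, using 600 L/ha spray water with 0.5% additive. Scoring: visual % efficacy after ~3 weeks, greenhouse.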

Lolium rigidum (LOLRI) = test: A. Herbicidal pre-emergence efficacy, LOLRI
Method in brief: as §1

Kochia scoparia (KCHSC) [3] = test: B. Herbicidal post-emergence efficacy, KCHSC; conditions: for Post-emergence efficacy against KCHSC in %: rated visually after about 3 weeks; for Post-emergence efficacy against KCHSC: 1280 g/ha
Method in brief: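 Visual percent efficacy relative to untreated controls (0% unaffected, 100% dead), scored roughly 3 weeks after foliar spraying of one-leaf-stage pot-grown plants with WP or EC preparations at application rates up to 1280 g/ha in 600 L/ha water containing 0.5% additive.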

Kochia scoparia (KCHSC) [4] = test: A. Herbicidal pre-emergence efficacy, KCHSC
Method in brief: as §1

Veronica persica (VERPE) = test: A. Herbicidal pre-emergence efficacy, VERPE; conditions: for Pre-emergence efficacy against VERPE: dosage 80 g/ha
Method in brief: as §1

[5] = 80 g/ha, scored visually after about 3 weeks vs untreated controls
[6] = pre-emergence, dosage 1280 g/ha

Row | SMILES | Pre-emergence efficacy against POLCO ([1]; 80 g/ha) | Pre-emergence efficacy against POLCO ([1]; 320 g/ha) | Post-emergence efficacy against VIOTR in % (Viola tricolor (VIOTR); application rate 320 g/ha) | Pre-emergence efficacy against ECHCG ([2]; 80 g/ha) | Pre-emergence efficacy against ECHCG ([2]; 320 g/ha) | Pre-emergence efficacy against ECHCG ([2]; 1280 g/ha) | Pre-emergence efficacy against LOLRI (Lolium rigidum (LOLRI); dosage 320 g/ha) | Pre-emergence efficacy against LOLRI (Lolium rigidum (LOLRI); dosage 1280 g/ha) | Post-emergence efficacy against KCHSC in % (Kochia scoparia (KCHSC) [3]; 80 g/ha) | Post-emergence efficacy against KCHSC in % (Kochia scoparia (KCHSC) [3]; 320 g/ha) | Post-emergence efficacy against KCHSC (Kochia scoparia (KCHSC) [3]) | Pre-emergence efficacy against KCHSC (Kochia scoparia (KCHSC) [4]; [5]) | Pre-emergence efficacy against KCHSC (Kochia scoparia (KCHSC) [4]; pre-emergence, dosage 320 g/ha) | Pre-emergence efficacy against KCHSC (Kochia scoparia (KCHSC) [4]; [6]) | Pre-emergence efficacy against VERPE in % (Veronica persica (VERPE); 320 g/ha) | Pre-emergence efficacy against VERPE in % (Veronica persica (VERPE); 1280 g/ha) | Pre-emergence efficacy against VERPE (Veronica persica (VERPE)) | Post-emergence efficacy against VIOTR in % (Viola tricolor (VIOTR); application rate 80 g/ha)
1 | O=S(=O)(CCCCl)Oc1ccccc1Oc1ncc(Cl)cn1 [Example I-2] | 90% | 100% | 100% | 90% | 100% | 100% | 90% | 100% | 100% | 100% | 100% | 100% | 100% | 100% | 100% | 100% | 100% | 
2 | CCCS(=O)(=O)Oc1ccccc1Oc1ncc(Cl)cn1 [Example I-3] |  | 100% |  |  | 100% | 100% | 100% | 100% | 90% | 90% | 90% | 100% | 100% | 100% | 100% | 100% | 100% | 
3 | O=S(=O)(CCCCl)Oc1ccccc1Oc1ncc(F)cn1 [Example I-5] | 90% | 100% | 90% |  | 100% | 100% |  |  | 100% | 100% | 100% | 100% | 100% | 100% | 100% | 100% | 90% | 80%
4 | CCCCS(=O)(=O)Oc1ccccc1Oc1ncc(Cl)cn1 [Example I-6] | 90% | 90% | 90% | 100% | 100% | 100% | 90% | 90% | 90% | 90% | 90% | 90% | 90% | 100% |  | 90% |  | 80%
5 | Cc1cccc(OS(=O)(=O)CCCCl)c1Oc1ncc(Cl)cn1 [Example I-12] |  |  | 80% |  | 90% | 100% |  | 90% |  |  | 90% |  | 90% | 100% | 90% | 100% |  | 
6 | O=S(=O)(CCCCl)Oc1cccc(F)c1Oc1ncc(Cl)cn1 [Example I-13] |  |  |  |  |  | 100% |  | 90% |  | 90% | 100% |  |  | 100% |  | 100% |  | 
7 | CCS(=O)(=O)Oc1ccccc1Oc1ncc(Cl)cn1 [Example I-16] |  |  |  |  | 90% | 100% |  | 90% | 90% | 100% | 100% | 100% | 100% | 100% | 90% | 100% |  | 
8 | CCCCCS(=O)(=O)Oc1ccccc1Oc1ncc(Cl)cn1 [Example I-24] |  | 80% | 80% |  | 100% | 100% |  | 100% | 90% | 100% | 100% |  |  | 100% |  |  |  | 
9 | CC(C)CCS(=O)(=O)Oc1ccccc1Oc1ncc(Cl)cn1 [Example I-25] | 80% | 90% |  |  | 100% | 100% | 90% | 100% | 90% | 100% | 100% | 90% | 100% | 100% |  | 90% |  | 
10 | Cc1cccc(Oc2ncc(Cl)cn2)c1OS(=O)(=O)CCCC(F)(F)F [Example I-28, 2-[(5-Chloropyrimidin-2-yl)oxy]-6-methylphenyl 4,4,4-trifluorobutane-1-sulfonate] |  |  |  | 90% | 100% | 100% | 90% | 100% |  | 90% | 100% |  | 90% | 90% | 100% | 100% |  | 
11 | Cc1cccc(Oc2ncc(Cl)cn2)c1OS(=O)(=O)CCC(F)(F)F [Example I-29] |  |  |  |  | 100% | 100% | 100% | 100% |  | 100% | 100% |  | 90% | 100% | 100% | 100% | 100% | 
12 | O=S(=O)(CCC(F)(F)F)Oc1c(Br)cccc1Oc1ncc(Cl)cn1 [Example I-31] |  |  |  |  |  | 100% |  | 100% | 90% | 100% | 100% | 90% | 100% | 100% | 100% | 100% |  | 
13 | O=S(=O)(CCCC(F)(F)F)Oc1c(Cl)cccc1Oc1ncc(Br)cn1 [Example I-34] |  | 100% | 100% |  |  |  |  |  | 100% | 100% | 100% |  |  | 90% | 90% | 100% |  | 100%
14 | C=CCS(=O)(=O)Oc1ccccc1Oc1ncc(Cl)cn1 [Example I-36] |  | 90% |  |  |  | 100% |  | 100% |  |  | 90% |  | 90% | 100% |  | 100% |  | 
15 | COCCS(=O)(=O)Oc1c(F)cccc1Oc1ncc(Cl)cn1 [Example I-52] | 90% | 100% | 80% |  | 90% | 90% |  | 100% |  |  |  |  | 90% | 100% | 100% | 100% |  | 
16 | O=S(=O)(CCC(F)=C(F)F)Oc1c(F)cccc1Oc1ncc(Cl)cn1 [Example I-70] | 100% | 100% | 100% |  |  |  |  |  |  |  |  |  |  |  |  |  |  | 100%
17 | N#Cc1cccc(Oc2ncc(Cl)cn2)c1OS(=O)(=O)CCCC(F)(F)F [Example I-81] | 80% | 90% | 100% |  |  |  |  |  |  |  |  |  |  |  |  |  |  | 100%
